Source: ChEMBL document CHEMBL1201862, “PubChem BioAssay data set” (2004)
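Method: 48-hour compound exposure of cells in 96-well plates, five concentrations, linear interpolation of endpoints. GI50 marks 50% less growth.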 Calls of active or inactive are those of the source. No stated cut-off is given here; in the data, active = GI50 up to about 1.1 µM and inactive = higher.

Columns and labels:
Assay in all cases: DTP human tumour cell line panel, 48 h
OVCAR-3 = test system: OVCAR-3
SK-OV-3 = test system: SK-OV-3
SF-295 = test system: SF-295
SNB-19 = test system: SNB-19
HOP-62 = test system: HOP-62
UO-31 = test system: UO-31
M19-MEL = test system: M19-MEL
HCT-116 = test system: HCT-116
U-251 = test system: U-251
786-0 = test system: 786-0
CAKI-1 = test system: CAKI-1
MOLT-4 = test system: MOLT-4
SN12C = test system: SN12C
NCI-H23 = test system: NCI-H23
TK-10 = test system: TK-10
NCI-H226 = test system: NCI-H226
HOP-92 = test system: HOP-92
SK-MEL-28 = test system: SK-MEL-28
Hs-578T = test system: Hs-578T
MDA-MB-231 = test system: MDA-MB-231

Row | Structure (SMILES) | GI50 (OVCAR-3) | GI50 (SK-OV-3) | GI50 (SF-295) | GI50 (SNB-19) | GI50 (HOP-62) | GI50 (UO-31) | GI50 (M19-MEL) | GI50 (HCT-116) | GI50 (U-251) | GI50 (786-0) | GI50 (CAKI-1) | GI50 (MOLT-4) | GI50 (SN12C) | GI50 (NCI-H23) | GI50 (TK-10) | GI50 (NCI-H226) | GI50 (HOP-92) | GI50 (SK-MEL-28) | GI50 (Hs-578T) | GI50 (MDA-MB-231)
1 | COc1cc(/C=C2/C(=O)N(C(=O)OCc3ccccc3)C(Cc3cc(OC)c(OC)c(C)c3OC)C(=O)N2Cc2ccccc2)c(OC)c(C)c1OC (stereo not given) | 48.8 µM (inactive) | > 100 µM (inactive) | > 100 µM (inactive) | > 100 µM (inactive) | > 100 µM (inactive) | > 100 µM (inactive) | 69.7 µM (inactive) | 29.3 µM (inactive) | 33.1 µM (inactive) | > 100 µM (inactive) | > 100 µM (inactive) | 8.09 µM (inactive) | > 100 µM (inactive) | > 100 µM (inactive) | > 100 µM (inactive) | 2 µM (inactive) | 2.64 µM (inactive) | > 100 µM (inactive) | – | –
2 | COc1ccc(C(=O)O/N=C2/CCC/C2=C\c2ccccc2)cc1 | > 100 µM (inactive) | > 100 µM (inactive) | > 65.8 µM (inactive) | > 100 µM (inactive) | > 100 µM (inactive) | > 100 µM (inactive) | > 100 µM (inactive) | > 100 µM (inactive) | > 70.3 µM (inactive) | > 72.3 µM (inactive) | > 100 µM (inactive) | > 100 µM (inactive) | > 100 µM (inactive) | > 100 µM (inactive) | > 91.6 µM (inactive) | > 100 µM (inactive) | > 100 µM (inactive) | > 100 µM (inactive) | – | –
3 | CCOC(=O)/C(=C\c1ccc(O)c(OC)c1)C(=O)c1ccccc1 | 26.9 µM (inactive) | > 42.8 µM (inactive) | 18.9 µM (inactive) | 16.5 µM (inactive) | > 10 µM (inactive) | 23 µM (inactive) | 20.8 µM (inactive) | 10.6 µM (inactive) | 13.5 µM (inactive) | 16.7 µM (inactive) | 23.9 µM (inactive) | 12.4 µM (inactive) | 11.1 µM (inactive) | 8.22 µM (inactive) | 25.9 µM (inactive) | 23.2 µM (inactive) | 21.3 µM (inactive) | 9.75 µM (inactive) | – | –
4 | COC1=CC(O)(CC(N)=O)c2ccccc2C1=O (stereo not given) | > 100 µM (inactive) | > 100 µM (inactive) | > 100 µM (inactive) | > 100 µM (inactive) | > 100 µM (inactive) | > 100 µM (inactive) | > 100 µM (inactive) | > 100 µM (inactive) | > 100 µM (inactive) | > 100 µM (inactive) | > 100 µM (inactive) | > 100 µM (inactive) | > 100 µM (inactive) | – | > 100 µM (inactive) | > 100 µM (inactive) | > 100 µM (inactive) | > 100 µM (inactive) | – | –
5 | CC(=O)NC(CCCCNC(=O)OCc1ccccc1)C(=O)NCc1ccccc1 (stereo not given) | > 100 µM (inactive) | > 100 µM (inactive) | > 100 µM (inactive) | > 100 µM (inactive) | > 100 µM (inactive) | > 100 µM (inactive) | > 100 µM (inactive) | > 100 µM (inactive) | > 100 µM (inactive) | > 100 µM (inactive) | > 100 µM (inactive) | > 100 µM (inactive) | > 100 µM (inactive) | > 100 µM (inactive) | > 100 µM (inactive) | > 100 µM (inactive) | > 100 µM (inactive) | > 100 µM (inactive) | – | –
6 | Nc1ccc(C(=O)NN2C(=O)C(Cl)C2c2ccccc2)cc1 (stereo not given) | > 100 µM (inactive) | > 100 µM (inactive) | > 100 µM (inactive) | > 100 µM (inactive) | > 100 µM (inactive) | > 100 µM (inactive) | > 100 µM (inactive) | > 100 µM (inactive) | > 100 µM (inactive) | > 100 µM (inactive) | > 100 µM (inactive) | > 100 µM (inactive) | > 100 µM (inactive) | > 100 µM (inactive) | > 100 µM (inactive) | > 100 µM (inactive) | > 100 µM (inactive) | > 100 µM (inactive) | – | –
7 | O=Cc1cc2c(s1)C(=O)c1sccc1C2=O | 0.222 µM (active) | 2.15 µM (inactive) | 0.169 µM (active) | 0.366 µM (active) | 1.82 µM (inactive) | 0.411 µM (active) | 0.0237 µM (active) | 0.256 µM (active) | 0.314 µM (active) | 1.03 µM (active) | 1.77 µM (inactive) | 1.23 µM (inactive) | 0.35 µM (active) | 0.191 µM (active) | 1.92 µM (inactive) | 1.79 µM (inactive) | 1.46 µM (inactive) | 0.176 µM (active) | 0.231 µM (active) | 0.792 µM (active)
8 | CC1(C)C(=O)/C=C\C(=O)C(C)(C)C2=CC=C(O2)C(C)(C)C(=O)C(Br)C(Br)C(=O)C(C)(C)C2=CC=C1O2 (stereo not given) | 29.9 µM (inactive) | > 100 µM (inactive) | > 100 µM (inactive) | > 100 µM (inactive) | > 100 µM (inactive) | > 92.3 µM (inactive) | 53.7 µM (inactive) | 17.9 µM (inactive) | 41.4 µM (inactive) | 39.6 µM (inactive) | 58.6 µM (inactive) | 3.3 µM (inactive) | > 80 µM (inactive) | 48.5 µM (inactive) | > 100 µM (inactive) | > 100 µM (inactive) | > 21.5 µM (inactive) | 76.7 µM (inactive) | 30.1 µM (inactive) | 27.4 µM (inactive)
9 | CN(C)c1ccc(N=O)c(O)c1.CN(C)c1ccc(N=O)c(O)c1.[SiH4] | 3.71 µM (inactive) | 20.7 µM (inactive) | 14.3 µM (inactive) | 17.3 µM (inactive) | 23 µM (inactive) | 16.3 µM (inactive) | 5.56 µM (inactive) | 6.5 µM (inactive) | 8.09 µM (inactive) | 20.8 µM (inactive) | 8.55 µM (inactive) | 11.5 µM (inactive) | 12 µM (inactive) | 10.1 µM (inactive) | 14.1 µM (inactive) | 16.4 µM (inactive) | 3.82 µM (inactive) | 13.2 µM (inactive) | – | –
10 | Oc1ncc(N(CCCl)CCCl)c(O)n1 [URACIL MUSTARD] | 74.6 µM (inactive) | 47.2 µM (inactive) | 14.7 µM (inactive) | 42.1 µM (inactive) | 15 µM (inactive) | 47.3 µM (inactive) | 63.2 µM (inactive) | 49 µM (inactive) | 15.2 µM (inactive) | 10 µM (inactive) | 4.33 µM (inactive) | 1.59 µM (inactive) | 8.65 µM (inactive) | 15 µM (inactive) | 110 µM (inactive) | 48.2 µM (inactive) | 23.8 µM (inactive) | 67.8 µM (inactive) | 91 µM (inactive) | 81.3 µM (inactive)
